Data on 21 compounds can be found in patent US11498896B2 (The Broad Institute, Inc., priority 2014, dated 2022).

Assay [1] concerns the target T1, human D2R/β-arrestin (Homo sapiens (Human), UniProt P14416). Nature of the assay: β-arrestin agonist assay (PathHunter). It is filed as cell-based. As to conditions: CHO-K1 cells expressing human D2R/β-arrestin; agonist mode. The method, then:
The detection reagent (9.6 μL, Buffer:Emerald II:Galactor-Star in a 19:5:1 ratio, i.e., 14.06 mL:3.7 mL:0.74 mL=18.5 mL) was then added to the agonist plates.

Assay [2] concerns the target T1, human D2R/β-arrestin. Description: Gi/cAMP agonist assay (Lance Ultra cAMP, forskolin). It is filed as cell-based. To be noted: CHO-K1 cells expressing human D2R/β-arrestin; agonist mode, 2.5 μM forskolin. The method, then: Eu-cAMP tracer solution (10 μl, PerkinElmer, 360 μl of Tracer in 17.64 ml kit buffer) and ULight-anti-cAMP solution (10 μl, 120 μL antibody in 17.88 ml kit buffer) was then added to each well.

For assay [3], the target named is T1, human D2R/β-arrestin. Description: cell-based. As to conditions: β-arrestin Antagonist, CHO-K1 cells expressing human D2R/β-arrestin; antagonist mode, quinpirole 130 nM.
Protocol: Cells were prepared for assays by growing cultures for up to 2 weeks (from about 6-20 passages). A vial of frozen cells was thawed in a water bath held at 37° C. The cells were then transferred into a 50 ml tube with 10 ml growth media. The vial was rinsed with growth media and the contents transferred to the 50 ml tube. The 50 ml tube was centrifuged at 1200 rpm for 5 minutes at room temperature. […] When the cells reached about 90% confluence (approximately 3 days between passages), the cells were passaged and used for either the agonist or antagonist assays as described below.
The cells were prepared for β-arrestin assays as described above. The assays were performed using a PathHunter® β-Arrestin Detecting Kit (DiscoveRX). The cells were grown on 225 mm dishes, then washed once with 1×PBS (Cellgro), followed by digestion with 2.5 ml 1× Detachment reagent (DRX 92-0009) for approximately 2 minutes.
Assay [4] concerns the target T1, human D2R/β-arrestin. Nature of the assay: cell-based. To be noted: cAMP Antagonist, CHO-K1 cells expressing human D2R/β-arrestin; antagonist mode, 2.5 μM forskolin and 2.7 nM quinpirole.

T1 sequence (P14416 whole entry): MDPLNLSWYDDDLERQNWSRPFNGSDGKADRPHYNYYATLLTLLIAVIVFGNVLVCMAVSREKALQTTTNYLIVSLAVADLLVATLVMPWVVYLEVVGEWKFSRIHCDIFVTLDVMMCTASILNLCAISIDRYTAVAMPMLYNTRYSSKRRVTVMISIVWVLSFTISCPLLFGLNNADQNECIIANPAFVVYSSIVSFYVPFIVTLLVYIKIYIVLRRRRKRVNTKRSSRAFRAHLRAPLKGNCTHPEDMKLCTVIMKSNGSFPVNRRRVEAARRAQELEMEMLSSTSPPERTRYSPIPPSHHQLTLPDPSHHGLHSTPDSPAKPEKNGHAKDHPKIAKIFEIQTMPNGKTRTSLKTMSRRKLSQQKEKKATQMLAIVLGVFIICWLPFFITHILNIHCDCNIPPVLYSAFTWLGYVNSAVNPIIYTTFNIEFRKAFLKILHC

As a reminder, the EC50 is the midpoint of the concentration-response curve. As usually defined, the IC50 is the concentration needed to halve the response being measured. Higher therefore signals a need for much substance. In the case of `CC(=O)N(CCN1CCC(C)(Oc2ccc(Cl)cc2)CC1)c1ccccc1C(F)(F)F` [Compound 170, N-(2-(4-(4-chlorophenoxy)-4-methylpiperidin-1-yl)ethyl)-N-(2-(trifluoromethyl)phenyl)acetamide], the EC50 in assay [1] and in assay [2] was greater than 30 µM throughout. For the same compound, the IC50 in assay [3] and in assay [4] was greater than 30 µM in each case.

Regarding `CC1(Oc2ccc(Cl)cc2)CCN(CCOc2ccc3cccc(C(F)(F)F)c3n2)CC1` [Compound 171, 2-(2-(4-(4-chlorophenoxy)-4-methylpiperidin-1-yl)ethoxy)-8-(trifluoromethyl)quinoline], the EC50 in assay [1] is greater than 30 µM; in assay [2], 0.1 to 1 µM. Besides, the IC50 in assay [3] and in assay [4] was greater than 30 µM each time.

On to `CC1(Oc2ccc(Cl)cc2)CCN(CCn2c(=O)ccc3cccc(C(F)(F)F)c32)CC1` [Compound 172, 1-(2-(4-(4-chlorophenoxy)-4-methylpiperidin-1-yl)ethyl)-8-(trifluoromethyl)quinolin-2(1H)-one], for which the results for the EC50 in assay [1] and in assay [2] were greater than 30 µM and 1 to 10 µM, respectively. Besides, the concentration for half-maximal inhibition (IC50) in assay [3] and in assay [4] was greater than 30 µM in each case.

As for `CC1(Oc2ccccc2)CCN(CCOc2ccncc2)CC1` [Compound 173, 4-(2-(4-methyl-4-phenoxypiperidin-1-yl)ethoxy)pyridine], the values for the EC50 in assay [1] and in assay [2] were 1 to 10 µM and 0.1 to 1 µM, respectively. In addition, the IC50 in assay [3] and in assay [4] was greater than 30 µM each time.

Consider `CC1(Oc2ccccc2)CCN(CCOc2ccccn2)CC1` [Compound 174, 2-(2-(4-methyl-4-phenoxypiperidin-1-yl)ethoxy)pyridine], for which the half-maximal effective concentration (EC50) is 0.1 to 1 µM in assay [1] and less than 0.1 µM in assay [2]. The half-inhibitory concentration (IC50) in assay [3] and in assay [4] was greater than 30 µM throughout.

Turning to `CC1(Oc2ccccc2)CCN(CCOc2cccc3[nH]ccc23)CC1` [Compound 175, 4-(2-(4-methyl-4-phenoxypiperidin-1-yl)ethoxy)-1H-indole], the EC50 was 0.1 to 1 µM in assay [1] and less than 0.1 µM in assay [2]. Also, the half-inhibitory concentration (IC50) in assay [3] is less than 0.1 µM; in assay [4] it was greater than 30 µM.

As for `CC(C)C1(O)CCN(CCOc2ccccc2C(F)(F)F)CC1` [Compound 176, 4-isopropyl-1-(2-(2-(trifluoromethyl)phenoxy)ethyl)piperidin-4-ol], the EC50 in assay [1] and in assay [2] was greater than 30 µM in each case. For the same compound, the IC50 in assay [3] was 0.1 to 1 µM; in assay [4], less than 0.1 µM.

As for `CC1(O)CCN(C2CCCN(c3ccccc3C(F)(F)F)C2)CC1` (stereo not drawn) [Compound 177, 4-methyl-1′-(2-(trifluoromethyl)phenyl)-[1,3′-bipiperidin]-4-ol], the EC50 in assay [1] and in assay [2] was greater than 30 µM in each case. The concentration for half-maximal inhibition (IC50) in assay [3] and in assay [4] was 1 to 10 µM each time.

`Clc1ccc(N2CCCC23CCN(CC2COc4ccccc4O2)CC3)cc1` (stereo not drawn) [Compound 178, 1-(4-chlorophenyl)-8-((2,3-dihydrobenzo[b][1,4]dioxin-2-yl)methyl)-1,8-diazaspiro[4.5]decane]: the EC50 in assay [1] and in assay [2] was greater than 30 µM each time. Further, the IC50 in assay [3] and in assay [4] was less than 0.1 µM in each case.

For the compound `FC(F)(F)c1ccccc1OCCN1CCC2(CC1)Cc1ccccc1O2` [Compound 179, 1′-(2-(2-(trifluoromethyl)phenoxy)ethyl)-3H-spiro[benzofuran-2,4′-piperidine]], the EC50 in assay [1] and in assay [2] was greater than 30 µM in each case. Besides, the IC50 in assay [3] fell in the range of 1 to 10 µM; in assay [4] it was 0.1 to 1 µM.

`CC1(Oc2ccc(Cl)cc2)CCN(CCOc2cccc(F)c2)C1` (stereo not drawn) [Compound 180, 3-(4-chlorophenoxy)-1-(2-(3-fluorophenoxy)ethyl)-3-methylpyrrolidine]: the EC50 was greater than 30 µM in assay [1] and less than 0.1 µM in assay [2]. The IC50 in assay [3] was 1 to 10 µM; in assay [4], greater than 30 µM.

As to `c1ccc(OCCN2CCC3(Cc4ccccc4O3)C2)cc1` (stereo not drawn) [Compound 181, 1′-(2-phenoxyethyl)-3H-spiro[benzofuran-2,3′-pyrrolidine]], the EC50 in assay [1] and in assay [2] was greater than 30 µM each time. The IC50 was 1 to 10 µM in assay [3] and less than 0.1 µM in assay [4].

For `CC1(Oc2ccc(Cl)cc2)CCN(CCOc2cccnc2)CC1` [Compound 182, 3-(2-(4-(4-chlorophenoxy)-4-methylpiperidin-1-yl)ethoxy)pyridine], the EC50 in assay [1] is 0.1 to 1 µM; in assay [2], less than 0.1 µM. The IC50 in assay [3] and in assay [4] was greater than 30 µM in each case.

With `CC1(Oc2ccc(Cl)cc2)CCN(CCOc2ccncc2)CC1` [Compound 183, 4-(2-(4-(4-chlorophenoxy)-4-methylpiperidin-1-yl)ethoxy)pyridine], the figures for the EC50 in assay [1] and in assay [2] were 1 to 10 µM and 0.1 to 1 µM, respectively. Further, the values for the IC50 in assay [3] and in assay [4] were 1 to 10 µM and greater than 30 µM, respectively.

Take `CC1(Oc2ccc(Cl)cc2)CCN(CCOc2ccc(C(F)(F)F)c(O)c2)CC1` [Compound 184, 5-(2-(4-(4-chlorophenoxy)-4-methylpiperidin-1-yl)ethoxy)-2-(trifluoromethyl)phenol]: the half-maximal effective concentration (EC50) in assay [1] was greater than 30 µM; in assay [2] it was 1 to 10 µM. For the same compound, the results for the IC50 in assay [3] and in assay [4] were 10 to 30 µM and greater than 30 µM, respectively.

For the compound `CC1(Oc2ccc(Cl)cc2)CCN(CCOc2ccc(C#N)cc2)CC1` [Compound 185, 4-(2-(4-(4-chlorophenoxy)-4-methylpiperidin-1-yl)ethoxy)benzonitrile], the results for the EC50 in assay [1] and in assay [2] were greater than 30 µM and 1 to 10 µM, respectively. For the same compound, the IC50 in assay [3] was 10 to 30 µM; in assay [4], greater than 30 µM.

In the case of `CC1(Oc2ccc(Cl)cc2)CCN(CCOc2cn[nH]c2)CC1` [Compound 186, 1-(2-((1H-pyrazol-4-yl)oxy)ethyl)-4-(4-chlorophenoxy)-4-methylpiperidine], the 50% effective concentration (EC50) in assay [1] is 1 to 10 µM; in assay [2], 0.1 to 1 µM. The 50% inhibitory concentration (IC50) in assay [3] was in the range of 1 to 10 µM; in assay [4], 0.1 to 1 µM.

For the compound `CC(=O)c1cc(F)ccc1OCCN1CCC(C)(Oc2ccc(Cl)cc2)CC1` [Compound 187, 1-(2-(2-(4-(4-chlorophenoxy)-4-methylpiperidin-1-yl)ethoxy)-5-fluorophenyl)ethan-1-one], the EC50 is greater than 30 µM in assay [1] and 0.1 to 1 µM in assay [2]. For the same compound, the IC50 in assay [3] and in assay [4] was 1 to 10 µM each time.

`COc1ccccc1OCCN1CCC(C)(Oc2ccc(Cl)cc2)CC1` [Compound 188, 4-(4-chlorophenoxy)-1-(2-(2-methoxyphenoxy)ethyl)-4-methylpiperidine]: the results for the half-maximal effective concentration (EC50) in assay [1] and in assay [2] were greater than 30 µM and 0.1 to 1 µM, respectively. Moreover, the IC50 in assay [3] was 0.1 to 1 µM; in assay [4], 1 to 10 µM.

With `COc1cc(F)c(F)cc1OCCN1CCC(C)(Oc2ccc(Cl)cc2)CC1` [Compound 189, 4-(4-chlorophenoxy)-1-(2-(4,5-difluoro-2-methoxyphenoxy)ethyl)-4-methylpiperidine], the results for the EC50 in assay [1] and in assay [2] were greater than 30 µM and 1 to 10 µM, respectively. For the same compound, the IC50 in assay [3] and in assay [4] was 1 to 10 µM throughout.

On to `CC(C)Oc1ccc(F)cc1OCCN1CCC(C)(Oc2ccc(Cl)cc2)CC1` [Compound 190, 4-(4-chlorophenoxy)-1-(2-(5-fluoro-2-isopropoxyphenoxy)ethyl)-4-methylpiperidine], for which the EC50 in assay [1] was greater than 30 µM; in assay [2], 0.1 to 1 µM. Besides, the IC50 in assay [3] fell in the range of 1 to 10 µM; in assay [4], 0.1 to 1 µM.
